One series relates to male KM mouse. The series can be described thus: Acute oral toxicity test. Format: in vivo. As to conditions: single oral dose of 3 g/kg, 10 or 11 mice per group. How it is done:
In this test male KM mouse weighting 18-22 g were used, and 10 or 11 mouse were assigned randomly to each group. […] The animals were fasted for 12 hours before the administration.

Series [1] concerns the target T1, PDE5 from human platelets (Homo sapiens, UniProt O76074).
T1 construct: from tissue; host or cells: human platelets
Kind of series: PDE5 inhibitory activity test (scintillation proximity assay). The series is classed as biochemical. An excerpt: (§1) The PDE5 and PDE3 were isolated form human platelets, while the PDE6 was isolated form bovine retinas. The enzyme inhibitory activity test conducted immediately after the enzymes had been isolated, using a scintillation proximity assay for the direct detection of AMP/GMP by the TRKQ7100 and TRKQ7090 kit. In summary, the effect of PDE inhibitors was investigated by assaying a fixed amount of enzyme in the presence of varying inhibitor concentrations and low substrate. The final assay volume was made up to 100 μl with 10 μl assay buffer (50 mM Tris/HCl PH 7.5, 8.3 mM MgCl2, 1.7 mM EGTA), and water. Reactions were initiated with enzyme, incubate for 30 minutes at 30° C. and terminated with 50 μl yttrium silicate SPA beads suspension containing zinc sulphate. Shook for 20 minutes and settled for 30 minutes in the dark, then counted on a BECKMAN LS6500 MULTI-PURPOSE SCINTILLATION COUNTER. The IC50 value for the compounds according the present invention was calculated according the counts.
According to the above-mentioned method, the inhibitory activities of some compounds of formula IA and IB according to the invention against PDE5 from human platelets were determined.
On the technique in general: In a scintillation proximity assay essentially only radioactivity close to the scintillant gives light.

The subject of a further series is rat corpora cavernosa. The series can be described thus: Pharmacodynamic test: intracavernous pressure on electric stimulation of the cavernous nerve. The series is classed as in vivo. As to conditions: anesthetized male SD rats, 5 mg/kg orally, ratio of ICP to MBp. As to the method: The test was carried out based on the methods reported (International Journal of Impotence Research 2002, 14, 251 and The Journal of Urology 1992, 147, 1124). After fasted for 12 hours, 4 male SD rats were randomized into each group. After anesthetizing the rats with sodium pentobarbital (50 mg/kg, i.p.), the penile skin was incised and the prepuce was degloved to expose completely the corpora cavernosa (CC). A needle linked to an electrophysiology instrument was inserted into the CC on the right side in order to measure the intracavernous pressure (ICP). The right carotid artery was cannulated in a similar manner to the polyethylene tube in order to monitor the mean blood pressure (MBp) continuously. […] Electric stimulation was performed at 2 Hz, for 60 s with a pulse duration of 5 ms and 3V using a stimulator. The compounds were administrated orally (5 mg/kg). The change of the ICP and MBp were monitored continuously before and after the administration. The effect of the compounds on the erection induced by electric stimulation was evaluated by the ratio of ICP to MBp. The parameter (ICP/MBp) was used to estimate the influence of the compounds to the rat corpora cavernosa. […] The statistical significance of the differences between groups was calculated using Duncan's multiple comparison.

A further series has as its target T2, PDE3 (Homo sapiens, UniProt Q14432).
T2 construct: from tissue; host or cells: human platelets
The series can be described thus: PDE3 inhibitory activity test (scintillation proximity assay). Format: biochemical. Conditions: PDE3 isolated from human platelets.
From the text: as §1
PDE3 is a PDE isozyme distributed mainly in heart, so the inhibiting of PDE3 may lead to side effects associated with heart. Accordingly, the inhibitory activities of some example compounds according to the invention against PDE3 were determined.

In another series the target is T3, PDE6 from bovine retina (Bos taurus, UniProt P11541+P23439).
T3 construct: the PDE6 was isolated form bovine retinas; from tissue; host or cells: bovine retina
T3 sequence (P11541 2-856 limits assumed): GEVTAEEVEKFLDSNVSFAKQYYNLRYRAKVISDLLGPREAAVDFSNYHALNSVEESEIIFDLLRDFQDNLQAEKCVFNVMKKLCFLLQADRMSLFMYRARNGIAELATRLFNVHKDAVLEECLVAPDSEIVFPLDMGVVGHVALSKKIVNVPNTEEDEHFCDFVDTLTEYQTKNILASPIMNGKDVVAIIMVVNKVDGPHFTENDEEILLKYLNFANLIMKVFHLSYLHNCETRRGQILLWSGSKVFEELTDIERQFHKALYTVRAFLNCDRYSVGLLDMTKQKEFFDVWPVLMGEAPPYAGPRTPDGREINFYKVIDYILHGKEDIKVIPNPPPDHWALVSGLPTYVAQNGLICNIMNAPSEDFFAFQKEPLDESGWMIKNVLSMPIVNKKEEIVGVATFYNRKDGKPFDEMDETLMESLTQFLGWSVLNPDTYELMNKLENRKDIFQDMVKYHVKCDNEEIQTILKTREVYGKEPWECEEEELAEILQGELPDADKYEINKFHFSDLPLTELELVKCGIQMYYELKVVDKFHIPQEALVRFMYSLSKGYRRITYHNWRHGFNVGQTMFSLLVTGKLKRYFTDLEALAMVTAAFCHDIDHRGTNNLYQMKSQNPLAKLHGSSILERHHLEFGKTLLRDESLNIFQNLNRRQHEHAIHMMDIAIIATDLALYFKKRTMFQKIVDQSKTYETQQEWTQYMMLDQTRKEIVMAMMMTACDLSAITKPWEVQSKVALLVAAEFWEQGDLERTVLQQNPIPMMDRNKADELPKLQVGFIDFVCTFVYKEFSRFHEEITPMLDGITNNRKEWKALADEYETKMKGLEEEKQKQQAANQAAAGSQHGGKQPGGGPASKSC
T3 sequence (P23439 2-850 limits assumed): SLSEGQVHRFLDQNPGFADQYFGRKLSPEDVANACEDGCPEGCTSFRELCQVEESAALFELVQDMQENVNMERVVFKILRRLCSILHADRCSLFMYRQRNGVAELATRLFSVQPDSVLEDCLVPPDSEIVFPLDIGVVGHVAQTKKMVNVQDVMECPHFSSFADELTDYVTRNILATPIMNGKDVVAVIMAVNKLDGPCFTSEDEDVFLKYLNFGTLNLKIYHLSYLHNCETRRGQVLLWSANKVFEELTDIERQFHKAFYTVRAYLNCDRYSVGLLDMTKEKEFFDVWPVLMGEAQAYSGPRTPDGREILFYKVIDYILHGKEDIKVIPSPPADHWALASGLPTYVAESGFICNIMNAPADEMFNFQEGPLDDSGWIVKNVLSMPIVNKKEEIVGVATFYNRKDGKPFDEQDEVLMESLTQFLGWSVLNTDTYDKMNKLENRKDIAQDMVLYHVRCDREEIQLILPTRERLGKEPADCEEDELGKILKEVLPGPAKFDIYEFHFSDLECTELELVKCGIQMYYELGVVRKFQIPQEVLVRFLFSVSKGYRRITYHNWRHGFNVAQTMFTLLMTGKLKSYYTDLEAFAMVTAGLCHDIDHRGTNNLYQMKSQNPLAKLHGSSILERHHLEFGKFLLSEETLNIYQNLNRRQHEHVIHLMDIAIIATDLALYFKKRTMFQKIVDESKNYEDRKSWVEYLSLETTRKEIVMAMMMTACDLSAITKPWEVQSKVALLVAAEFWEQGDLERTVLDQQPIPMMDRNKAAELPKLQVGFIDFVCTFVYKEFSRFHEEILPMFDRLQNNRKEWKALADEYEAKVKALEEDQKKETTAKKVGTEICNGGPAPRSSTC
The series can be described thus: PDE6 inhibitory activity test (scintillation proximity assay). Format: biochemical.
From the text: as §1

T2 sequence (Q14432 whole entry): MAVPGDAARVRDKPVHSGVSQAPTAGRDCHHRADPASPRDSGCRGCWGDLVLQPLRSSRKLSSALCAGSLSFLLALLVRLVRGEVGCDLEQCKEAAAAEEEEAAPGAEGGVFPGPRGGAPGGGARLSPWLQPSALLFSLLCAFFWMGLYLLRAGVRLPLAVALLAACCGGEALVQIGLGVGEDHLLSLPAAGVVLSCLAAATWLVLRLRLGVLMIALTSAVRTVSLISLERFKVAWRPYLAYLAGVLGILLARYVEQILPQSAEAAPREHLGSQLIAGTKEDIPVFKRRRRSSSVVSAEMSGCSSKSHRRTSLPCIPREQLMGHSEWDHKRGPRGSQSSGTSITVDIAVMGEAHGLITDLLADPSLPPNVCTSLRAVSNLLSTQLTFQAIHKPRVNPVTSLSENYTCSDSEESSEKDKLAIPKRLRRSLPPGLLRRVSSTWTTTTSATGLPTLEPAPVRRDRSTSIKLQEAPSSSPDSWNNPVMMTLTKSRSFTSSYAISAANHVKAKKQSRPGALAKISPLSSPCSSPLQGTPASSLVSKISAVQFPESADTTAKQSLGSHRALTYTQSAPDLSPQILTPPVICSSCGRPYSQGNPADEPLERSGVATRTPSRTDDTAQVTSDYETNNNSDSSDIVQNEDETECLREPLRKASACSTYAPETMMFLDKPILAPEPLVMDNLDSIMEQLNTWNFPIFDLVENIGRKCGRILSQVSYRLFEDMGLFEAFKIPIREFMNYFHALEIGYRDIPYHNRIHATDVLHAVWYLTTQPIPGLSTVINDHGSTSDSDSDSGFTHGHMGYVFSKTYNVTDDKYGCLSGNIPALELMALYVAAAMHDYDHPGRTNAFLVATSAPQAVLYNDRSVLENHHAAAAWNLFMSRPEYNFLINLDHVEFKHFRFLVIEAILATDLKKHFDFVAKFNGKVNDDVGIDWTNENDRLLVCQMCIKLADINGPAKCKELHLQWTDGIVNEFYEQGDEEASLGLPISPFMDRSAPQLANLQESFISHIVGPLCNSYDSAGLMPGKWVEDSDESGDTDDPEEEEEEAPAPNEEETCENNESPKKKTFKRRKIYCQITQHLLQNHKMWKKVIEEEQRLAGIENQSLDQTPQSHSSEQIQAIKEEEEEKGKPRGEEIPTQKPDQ

As for `CCCOc1ccc(S(=O)(=O)N(CC)CCCOC(C)=O)cc1-c1nc2c(CCC)nn(C)c2c(=O)[nH]1` [Example 97, 1-methyl-5-{2-propoxy-5-[[1-ethyl-1-(3-acetoxypropyl)]amidosulfonyl]phenyl}-3-n-propyl-1,6-dihydro-7H-pyrazolo[4,3-d]pyrimidin-7-one], in the series with male KM mouse, the Number of death was 5 and the mortality rate is on record as 45%. Besides, in series [1] (PDE5 from human platelets), the IC50 (in general, the concentration needed to halve the response being measured) was 13.1 nM. In addition, in the series on rat corpora cavernosa, the ICP/BP turned out to be 72.0 ± 13.5. Inhibition against PDE3 was half-maximal at 5120 nM (IC50).

Consider `CCCOc1ccc(S(=O)(=O)N(CCO)CCN2CCOCC2)cc1-c1cc2c(CCC)nn(C)c2c(=O)[nH]1` [Example 95, 1-methyl-5-{2-propoxy-5-[[1-(2-hydroxyethyl)-1-(2-morpholin-1-yl)ethyl]amidosulfonyl]phenyl}-3-n-propyl-1,6-dihydro-7H-pyrazolo[4,3-d]pyrimidin-7-one], for which the ICP/BP in the series with rat corpora cavernosa was 57.2 ± 10.1.

Take `CCCOc1ccc(S(=O)(=O)N(CCN2CCCC2)Cc2cccnc2)cc1-c1nc2c(CCC)nn(C)c2c(=O)[nH]1` [Example 89, 1-methyl-5-{2-propoxy-5-[[1-(3-pyridylmethyl)-1-(2-pyrrolidin-1-yl)ethyl]amidosulfonyl]phenyl}-3-n-propyl-1,6-dihydro-7H-pyrazolo[4,3-d]pyrimidin-7-one]: the IC50 on PDE6 from bovine retina (PDE6 from bovine retina) is 215 nM; in series [1] (PDE5 from human platelets) it was 7.85 nM; in series [1] (PDE5 in the PDE6 selectivity table), 7.85 nM. In addition, the “PDE6 IC50/PDE5 IC50” value at PDE6 from bovine retina (selectivity of PDE5 versus PDE6) is on record as 27.4. In addition, in the series with male KM mouse, the Number of death is 5. Also, the mortality rate in the series on male KM mouse worked out at 45%. Further, the ICP/BP in the series with rat corpora cavernosa turned out to be 70.9 ± 9.8.

For `CCCOc1ccc(S(=O)(=O)N(C)CCN2CCCCC2)cc1-c1nc2c(CCC)nn(C)c2c(=O)[nH]1` [Example 78, 1-methyl-5-{2-propoxy-5-[[1-methyl-1-(2-piperidin-1-yl)ethyl]amidosulfonyl]phenyl}-3-n-propyl-1,6-dihydro-7H-pyrazolo[4,3-d]pyrimidin-7-one], in series [1] (PDE5 from human platelets), half-maximal inhibition (IC50) was put at 8.72 nM. Moreover, the ICP/BP with rat corpora cavernosa was 71.6 ± 8.3.

For `CCCOc1ccc(S(=O)(=O)N(CCN2CCOCC2)Cc2cccnc2)cc1-c1nc2c(CCC)nn(C)c2c(=O)[nH]1` [Example 62, 1-methyl-5-{2-propoxy-5-[[1-(3-pyridylmethyl)-1-(2-morpholin-1-yl)ethyl]amidosulfonyl]phenyl}-3-n-propyl-1,6-dihydro-7H-pyrazolo[4,3-d]pyrimidin-7-one], in the series on male KM mouse, the Number of death is 6 and the mortality rate was found to be 60%. Further, the ICP/BP in the series with rat corpora cavernosa was 69.8 ± 12.2. At PDE3, this compound had a half-inhibitory concentration (IC50) of 2860 nM.

With `CCCOc1ccc(S(=O)(=O)N(C)CCOC(C)=O)cc1-c1nc2c(CCC)nn(C)c2c(=O)[nH]1` [Example 33, 1-methyl-5-{2-propoxy-5-[[1-methyl-1-(2-acetoxyethyl)]amidosulfonyl]phenyl}-3-n-propyl-1,6-dihydro-7H-pyrazolo[4,3-d]pyrimidin-7-one], the ICP/BP with rat corpora cavernosa is given as 72.3 ± 28.6. The compound also returned a half-inhibitory concentration (IC50) against PDE3 of 30400 nM.

For `CCCc1nn(C)c2c(=O)[nH]c(-c3cc(S(=O)(=O)N4CCN(C)CC4)ccc3OCC)nc12` [sildenafil, Sildenafil, reference compound], in the series with male KM mouse, the Number of death amounted to 6 and the mortality rate is reported as 60%. Besides, the ICP/BP in the series on rat corpora cavernosa is on record as 80.1 ± 5.1.

For the compound `CCCOc1ccc(S(=O)(=O)N(CCCOC(C)=O)CCCOC(C)=O)cc1-c1nc2c(CCC)nn(C)c2c(=O)[nH]1` [Example 93, 1-methyl-5-{2-propoxy-5-[bis(3-acetoxypropyl)amidosulfonyl]phenyl}-3-n-propyl-1,6-dihydro-7H-pyrazolo[4,3-d]pyrimidin-7-one], the Number of death in the series on male KM mouse is 0. Besides, in the series on male KM mouse, the mortality rate was 0%. Also, the IC50 stood at 3.8 nM in series [1] (PDE5 from human platelets) and 6000 nM against PDE3. Moreover, in the series on rat corpora cavernosa, the ICP/BP worked out at 77.2 ± 24.8.

In the case of `CCCOc1ccc(S(=O)(=O)N(CCOCC)CCN2CCOCC2)cc1-c1nc2c(CCC)nn(C)c2c(=O)[nH]1` [Example 111, 1-methyl-5-{2-propoxy-5-[[1-(2-ethoxyethyl)-1-(2-morpholin-1-yl)ethyl]amidosulfonyl]phenyl}-3-n-propyl-1,6-dihydro-7H-pyrazolo[4,3-d]pyrimidin-7-one], in the series with male KM mouse, the Number of death was 0 and the mortality rate was 0%. In series [1] (PDE5 from human platelets), this compound returned an IC50 of 6.83 nM. Moreover, the ICP/BP in the series on rat corpora cavernosa stood at 89.1 ± 6.9. Also, the IC50 at PDE3 worked out at 8730 nM.

Consider `CCCOc1ccc(S(=O)(=O)N(CCCO)CCCOC)cc1-c1nc2c(CCC)nn(C)c2c(=O)[nH]1` [Example 99, 1-methyl-5-{2-propoxy-5-[[1-(3-methoxypropyl)-1-(3-hydroxypropyl)]amidosulfonyl]phenyl}-3-n-propyl-1,6-dihydro-7H-pyrazolo[4,3-d]pyrimidin-7-one], for which, in the series on male KM mouse, the Number of death came to 1 and the mortality rate is 10%. In addition, 4.03 nM corresponded to half-maximal inhibition in series [1] (PDE5 from human platelets) (IC50). Moreover, in the series with rat corpora cavernosa, the ICP/BP is 56.2 ± 9.3.

On to `CCCOc1ccc(S(=O)(=O)N(C)CCN(C)C)cc1-c1cc2c(CCC)nn(C)c2c(=O)[nH]1` [Example 75, 1-methyl-5-{2-propoxy-5-[[1-methyl-1-(2-dimethylamino)]amidosulfonyl]phenyl}-3-n-propyl-1,6-dihydro-7H-pyrazolo[4,3-d]pyrimidin-7-one], for which the ICP/BP in the series with rat corpora cavernosa is on record as 74.2 ± 7.8.

For the origin of these results see US20080318949A1, “Pyrazolopyrimidinone Derivatives, Their Preparation And Their Use” (Topharman Shanghai Co., Ltd, priority 2005, published 2008).
